# Legend:
# [1] = Decomposition kinetics of formoterol in aqueous solution (stability testing by HPLC at accelerated temperatures); assay type: physicochemical
# Source text: In the embodiments herein, the compositions have a pH of about 2.0 to about 8.0. In other embodiments, the compositions have a pH of about 4.0 to about 6.0, or about 4.5 to about 5.5. In certain of the above embodiments, the compositions are formulated at a pH of about 4, 4.4 or 4.6 up to about 5.5, 5.7 or 6. In other embodiments, the pH is about 5.0.
# In other of the above embodiments, the compositions further contain a buffer, including, but not limited to, citric acid/phosphate, acetate, barbital, borate, Britton-Robinson, cacodylate, citrate, collidine, formate, maleate, Mcllvaine, phosphate, Prideaux-Ward, succinate, citrate-phosphate-borate (Teorell-Stanhagen), veronal acetate, MES (2-(N-morpholino)ethanesulfonic acid), BIS-TRIS (bis(2-hydroxyethyl)iminotris(hydroxymethyl)methane), ADA (N-(2-acetamido)-2-iminodiacetic acid), ACES (N-(carbamoylmethyl)-2-aminoethanesulfonic acid), PIPES (piperazirie-N,N′-bis(2-ethanesulfonic acid)), MOPSO (3-(N-morpholino)-2-hydroxypropanesulfonic acid), BIS-TRIS PROPANE (1,3-bis(tris(hydroxymethyl)methylamino)propane), BES (N,N-bis(2-hydroxyethyl)-2-aminoethanesulfonic acid), MOPS (3-(N-morpholino)propanesulfonic acid), TES (N-tris(hydroxymethyl)methyl-2-aminoethanesulfonic acid), HEPES (N-(2-hydroxyethyl)piperazine-N′-(2-ethanesulfonic acid), DIPSO (3-(N,N-bis(2-hydroxyethyl)amino)-2-hydroxypropanesulfonic acid), MOBS (4-(N-morpholino)butanesulfonic acid), TAPSO (3-(N-tris(hydroxymethyl)methylamino)-2-hydroxypropanesulfonic acid), TRIZMAO (tris(hydroxymethylaminomethane), HEPPSO (N-(2-hydroxyethyl)piperazine-N′-(2-hydroxypropanesulfonic acid), POPSO (piperazine-N,N′-bis(2-hydroxypropanesulfonic acid)), TEA (triethanolamine), EPPS (N-(2-hydroxyethyl)piperazine-N′-(3-propanesulfonic acid), TRICINE (N-tris(hydroxymethyl)methylglycine), GLY-GLY (glycylglycine), BICINE (N;N-bis(2-hydroxyethyl)glycine), HEPBS (N-(2-hydroxyethyl)piperazine-N′-(4-butanesulfonic acid)), TAPS (N-tris(hydroxymethyl)methyl-3-aminopropanesulfonic acid), AMPD (2-amino-2-methyl-1,3-propanediol), and/or any other buffers known to those of skill in the art. In one embodiment, the buffer is citric acid/phosphate buffer, acetate buffer, citrate buffer or phosphate buffer. In another embodiment, the buffer is a citrate buffer (citric acid/sodium citrate). […] Buffer concentrations for use herein include from about 0 or 0.01 mM to about 150 mM, or about 1 mM to about 20 mM. In one embodiment, the buffer concentration is about 5 mM. In another embodiment, the buffer concentration is about 1 mM to about 50 mM, or about 20 mM. […] The particular buffer and buffer concentration of a given composition for long term storage provided herein may be determined empirically using standard stability assays well known to those of skill in the art (see, e.g., the Examples).
# The solutions were stored at 60° C.
# (§1) Stability samples of the solutions prepared in EXAMPLES 1 and 2 were placed in scintillation vials with teflon-lined caps and stored in stability ovens at accelerated temperatures. At selected time points, aliquots of the samples were removed from the scintillation vials.
# [2] = Estimated shelf-life of formoterol in the compositions (Arrhenius kinetics); assay type: physicochemical; settings: in the compositions provided herein
# Source text: as §1
# [3] = patients with reversible obstructive respiratory diseases; cited from earlier work
smiles,measurement,setting,value
"COc1ccc(CC(C)NCC(O)c2ccc(O)c(NC=O)c2)cc1 (racemic) [formoterol, 2-hydroxy-5-((1RS)-1-hydroxy-2-(((1RS)-2-(p-methoxyphenyl)-1-methylethyl)amino)ethyl)formanilide]",pH at which decomposition in aqueous solution is slowest,"[1]; 60° C., buffer concentration 5 mM, ionic strength 0.05",about 5.0
same,rate constant (kobs) for decomposition of an aqueous solution,"[1]; 60° C., pH 3, buffer concentration 5 mM, ionic strength 0.05",approximately 0.62 day^−1
same,rate constant (kobs) for decomposition of an aqueous solution,"[1]; 60° C., pH 4, buffer concentration 5 mM, ionic strength 0.05",~0.11 day⁻¹
same,rate constant (kobs) for decomposition of an aqueous solution,"[1]; 60° C., pH 5, buffer concentration 5 mM, ionic strength 0.05",~0.044 day⁻¹
same,rate constant (kobs) for decomposition of an aqueous solution,"[1]; 60° C., pH 7, buffer concentration 5 mM, ionic strength 0.05",~0.55 day⁻¹
same,effect of increasing buffer concentration from 5 mM to 20 mM on rate constant of decomposition,[1]; low and approximately neutral conditions (pH),increased the rate constant of decomposition significantly
same,effect of increasing buffer concentration from 5 mM to 20 mM on rate constant of decomposition,[1]; pH region of about 4.5 to about 5.5,no noticeable differences in rate constant
same,solubility,physchem; aqueous buffer,~2200 µg/mL
same,solubility,"physchem; pH 3, aqueous buffer",~4800 µg/mL
same,solubility,"physchem; pH 4, aqueous buffer",~3000 µg/mL
same,solubility,physchem; water,~2000 µg/mL
same,estimated shelf-life,[2]; 5° C.,about 6.2 years
same,estimated shelf-life,[2]; 25° C.,about 7.5 months
same,duration of bronchodilatory effect,[3],greater than 12 hours
same,onset of bronchodilatory effect,[3],1 to 3 min
